Columns and labels:
[1] = system: C2C12 myotubes; experiment: Mitochondrial DNA content by QRT-PCR in C2C12 myotubes; assay type: cell-based, mouse; settings: 10 nM, 72 hours
Experimental: D. ULMA increases mitochondrial DNA content. C2C12 myotubes in 6 well plates were treated with vehicle (0.1% vol/vol DMSO) or 10 nM ULMA (in DMSO) for 72 h. Following which, total cellular DNA was isolated from these cells by standard procedure (using a genomic DNA isolation kit; Macherey Nagel; according to manufacturer's instructions) and the mitochondrial DNA content was measured by QRT-PCR based measurement of mitochondrial coxII (Mit-CoxII) and cytochrome b (Cytb) and normalized with genomic glycerol three phosphate dehydrogenase DNA level. Data represent mean±SEM from three independent experiments performed in triplicates. *p<0.05 as determined by two tailed unpaired student's t-test.
Adiponectin is also known to activate PGC-1α by indirectly deacetylating this protein through activation of sirt1 (M. Iwabu, T. Yamauchi, M. Okada-Iwabu, K. Sato, T. Nakagawa, M. Funata, M. Yamaguchi, S. Namiki, R. Nakayama, M. Tabata, H. Ogata, N. Kubota, I. Takamoto, Y. K. Hayashi, N. Yamauchi, H. Waki, M. Fukayama, I. Nishino, K. Tokuyama, K. Ueki, Y. Oike, S. Ishii, K. Hirose, T. Shimizu, K. Touhara, T. Kadowaki. Nature; 464(7293): 1313-1319. 2010), therefore PGC-1α acetylation status following ULMA treatment was checked in C2C12 cells. C2C12 myotubes plated in 10 cm dish were treated with vehicle (DMSO) or 10 nM ULMA in DMSO for 6 hours. […]

[2] = system: wistar rats; experiment: Dexamethasone mediated cardiac hypertrophy in rats (heart weight/body weight ratio); assay type: in vivo, rat
Experimental: Following 15 d treatment with indicated compounds or vehicle, animals were euthanized and heart weight and body weight were measured and heart weight/body weight ratio were calculated and plotted. Data represents mean+/−SEM. N=6. *p<0.05 as determined by student's t-test.
Blood was collected from cardiac punctures.
Therefore, the heart weight/body weight ratio was measured in these rats (described in Example 6A-C).

With O=C1c2c(cc(O)c([C@@H]3O[C@H](CO)[C@@H](O)[C@H](O)[C@H]3O)c2O)O[C@@H](c2ccc(O)c(O)c2)[C@@H]1O [ULMA, (2S,3S)-(+)-3′,4′,5,7-tetrahydroxydihydroflavonol-6-C-β-D-glucopyranoside] the “Cytochrome B (Cytb) DNA level” value [1] was “enhanced”, the “mitochondrial cytochrome oxidase II (COX-II) DNA level” value [1] was “enhanced” and the “Dex-caused increase of heart/body weight ratio” value ([2]; Dex + ULMA) was “significantly alleviated this increase”. The “heart weight/body weight ratio in control animals” value ([2]; ULMA alone) was “did not change”.
